Reference: patent US20090016990A1, “Antimicrobial Compositions” (priority 2007, published 2009)

Legend:
[1] = system: Pseudomonas aeruginosa ATCC 27853; assay: MBEC assay, biofilm elimination, MBEC bioFILM PA panel; assay type: cell-based; parameters: MBEC-Biofilm Elimination, Without compound 2 / MBEC-Biofilm Elimination, With 0.01% compound 2 in 5% EtOH/PBS / MBEC-Biofilm Elimination, Without compound 7 / MBEC-Biofilm Elimination, With 0.01% compound 7 in 5% EtOH/PBS / MBEC-Biofilm Elimination, Without compound 1 / MBEC-Biofilm Elimination, With 0.01% compound 1 in 5% EtOH/PBS / MBEC-Biofilm Elimination, without salt of compound 2 / MBEC-Biofilm Elimination, with 0.1% salt of compound 2: unit not given here; conditions: for MBEC-Biofilm Elimination, without salt of compound 2 / MBEC-Biofilm Elimination, with 0.1% salt of compound 2: Table 9; for MBEC-Biofilm Elimination, without salt of compound 2 / MBEC-Biofilm Elimination, without salt of compound 6: antibiotic or antibiotic combination alone; for MBEC-Biofilm Elimination, without salt of compound 2 / MBEC-Biofilm Elimination, with 0.1% salt of compound 2 / MBEC-Biofilm Elimination, without salt of compound 6 / MBEC-Biofilm Elimination, with 0.1% salt of compound 6: value per component; for MBEC-Biofilm Elimination, with 0.1% salt of compound 2: antibiotic or combination plus 0.1% salt of compound 2; for MBEC-Biofilm Elimination, without salt of compound 6 / MBEC-Biofilm Elimination, with 0.1% salt of compound 6: Table 10; for MBEC-Biofilm Elimination, with 0.1% salt of compound 6: antibiotic or combination plus 0.1% salt of compound 6; for MBEC-Biofilm Elimination, Without compound 1 / MBEC-Biofilm Elimination, Without compound 2 / MBEC-Biofilm Elimination, Without compound 3 / MBEC-Biofilm Elimination, Without compound 6 / MBEC-Biofilm Elimination, Without compound 7 / MBEC-Biofilm Elimination, Without compound 9: antibiotic alone
[2] = system: Pseudomonas aeruginosa ATCC 27853; assay: MBEC assay, biofilm inhibition (prevention of biofilm formation), MBEC bioFILM PA panel; assay type: cell-based; parameters: MBEC-Biofilm Inhibition, Without compound 9 / MBEC-Biofilm Inhibition, Without compound 6 / MBEC-Biofilm Inhibition, Without compound 2 / MBEC-Biofilm Inhibition, Without compound 7 / MBEC-Biofilm Inhibition, With 0.01% compound 7 in 5% EtOH/PBS / MBEC-Biofilm Inhibition, without salt of compound 2 / MBEC-Biofilm Inhibition, with 0.1% salt of compound 2 / MBEC-Biofilm Inhibition, without salt of compound 6: unit not given here; conditions: for MBEC-Biofilm Inhibition, without salt of compound 2 / MBEC-Biofilm Inhibition, with 0.1% salt of compound 2: Table 9; for MBEC-Biofilm Inhibition, without salt of compound 2 / MBEC-Biofilm Inhibition, without salt of compound 6: antibiotic or antibiotic combination alone; for MBEC-Biofilm Inhibition, without salt of compound 2 / MBEC-Biofilm Inhibition, with 0.1% salt of compound 2 / MBEC-Biofilm Inhibition, without salt of compound 6 / MBEC-Biofilm Inhibition, with 0.1% salt of compound 6: value per component; for MBEC-Biofilm Inhibition, without salt of compound 2: separated by /; for MBEC-Biofilm Inhibition, with 0.1% salt of compound 2: antibiotic or combination plus 0.1% salt of compound 2; for MBEC-Biofilm Inhibition, without salt of compound 6 / MBEC-Biofilm Inhibition, with 0.1% salt of compound 6: Table 10; for MBEC-Biofilm Inhibition, with 0.1% salt of compound 6: antibiotic or combination plus 0.1% salt of compound 6; for MBEC-Biofilm Inhibition, Without compound 1 / MBEC-Biofilm Inhibition, Without compound 2 / MBEC-Biofilm Inhibition, Without compound 3 / MBEC-Biofilm Inhibition, Without compound 6 / MBEC-Biofilm Inhibition, Without compound 7 / MBEC-Biofilm Inhibition, Without compound 9: antibiotic alone; for MBEC: antibiotic or combination alone, concentrations in order of the combination; for MBEC, μg/mL +Compound 1: antibiotic plus Compound 1; for MBEC, μg/mL +Compound 2: antibiotic plus Compound 2; for MBEC, μg/mL +Compound 7: antibiotic plus Compound 7; for MBEC-Biofilm Inhibition, With 0.01% compound 2 in 5% EtOH/PBS / value in parentheses after MBEC-Biofilm Inhibition with 0.01% compound 2 (% reduction as in Table 2): with 0.01% compound 2 in 5% EtOH/PBS
[3] = system: Pseudomonas aeruginosa ATCC 27853; assay: MIC assay, planktonic growth, MBEC bioFILM PA panel; conditions: compound at 0.01%
Method: The MBEC bioFILM PA panel is designed for use in determining antimicrobial agent susceptibility of both planktonic and biofilm Pseudomonas aeruginosa.
From this test, the minimum antibiotic concentration—in the presence and absence of a compound of the present invention—that will inhibit bacterial growth in solution (“MIC Assay”) is determined. The minimum antibiotic concentration—in the presence and absence of a compound of the present invention—that will prevent attachment of bacteria to a test surface (“MBEC Assay”) is determined. Approximately 1,000,000-10,000,000 bacteria attach in the absence of antibiotics; lesser numbers attach in the presence of antibiotics.
MBEC bioFilm PA panel—Panel wells are inoculated with planktonic Pseudomonas aeruginosa using a 95 peg inoculation lid. Panels and pegged lids are then incubated at 35° C. for 18 h. Planktonic susceptibility and resistance is determined by measuring inhibition and growth in the presence of antimicrobial agents after incubation. Biofilm susceptibility and resistance is determined by measuring inhibition and growth after peg sonication, biofilm bacteria recovery, then incubation for additional 18-24 h at 35° C.

[4] = reduction of antibiotic or combination required to prevent biofilm formation
[5] = with 0.01% compound 1 in 5% EtOH/PBS

| Compound | MBEC-Biofilm Elimination, without salt of compound 2 [1] | MBEC-Biofilm Elimination, with 0.1% salt of compound 2 [1] | MBEC-Biofilm Elimination, without salt of compound 6 [1] | MBEC-Biofilm Elimination, with 0.1% salt of compound 6 [1] | MBEC-Biofilm Elimination, Without compound 1 [1] | MBEC-Biofilm Elimination, Without compound 2 [1] | MBEC-Biofilm Elimination, Without compound 3 [1] | MBEC-Biofilm Elimination, Without compound 6 [1] | MBEC-Biofilm Elimination, Without compound 7 [1] | MBEC-Biofilm Elimination, Without compound 9 [1] | MBEC-Biofilm Elimination, With 0.01% compound 1 in 5% EtOH/PBS [1] | MBEC-Biofilm Elimination, With 0.01% compound 2 in 5% EtOH/PBS [1] | MBEC-Biofilm Elimination, With 0.01% compound 7 in 5% EtOH/PBS [1] | MBEC-Biofilm Elimination, With 0.05% compound 3 in 5% EtOH/PBS [1] | MBEC-Biofilm Elimination, With 0.05% compound 6 in 5% EtOH/PBS [1] | MBEC-Biofilm Inhibition, without salt of compound 2 [2] | MBEC-Biofilm Inhibition, with 0.1% salt of compound 2 [2] | MBEC-Biofilm Inhibition, without salt of compound 6 [2] | MBEC-Biofilm Inhibition, with 0.1% salt of compound 6 [2] | MBEC-Biofilm Inhibition, Without compound 1 [2] | further results |
| --- | --- | --- | --- | --- | --- | --- | --- | --- | --- | --- | --- | --- | --- | --- | --- | --- | --- | --- | --- | --- | --- |
| NCC[C@H](O)C(=O)N[C@@H]1C[C@H](N)[C@@H](O[C@H]2O[C@H](CN)[C@@H](O)[C@H](O)[C@H]2O)[C@H](O)[C@H]1O[C@H]1O[C@H](CO)[C@@H](O)[C@H](N)[C@H]1O [AK, amikacin] | >8 | 8 | >8 | 8 | >8 | >8 | >8 | >8 | >8 | >8 | >8 | 8 | 8 | >8 | >8 | >8 | >8 | >8 | >8 | >8 | MBEC-Biofilm Elimination, With 0.1% w/v compound 9 in PBS [1]: >8; MBEC-Biofilm Inhibition, Without compound 2 [2]: >8; MBEC-Biofilm Inhibition, Without compound 3 [2]: >8; MBEC-Biofilm Inhibition, Without compound 6 [2]: >8; MBEC-Biofilm Inhibition, Without compound 7 [2]: >8; MBEC-Biofilm Inhibition, Without compound 9 [2]: >8; MBEC [2]: >8 µg/mL; MBEC, μg/mL +Compound 1 [2]: >8 µg/mL; MBEC, μg/mL +Compound 2 [2]: >8 µg/mL; MBEC, μg/mL +Compound 7 [2]: 2 to 8 µg/mL; (% reduction) +Compound 7 [2, 4]: > 50%; MBEC-Biofilm Inhibition, With 0.01% compound 1 in 5% EtOH/PBS [2, 5]: >8; MBEC-Biofilm Inhibition, With 0.01% compound 2 in 5% EtOH/PBS [2]: 2-8; value in parentheses after MBEC-Biofilm Inhibition with 0.01% compound 2 (% reduction as in Table 2) [2]: ≥ 50; MBEC-Biofilm Inhibition, With 0.01% compound 7 in 5% EtOH/PBS [2]: >8; MBEC-Biofilm Inhibition, With 0.05% compound 3 in 5% EtOH/PBS [2]: >8; MBEC-Biofilm Inhibition, With 0.05% compound 6 in 5% EtOH/PBS [2]: >8; MBEC-Biofilm Inhibition, With 0.1% w/v compound 9 in PBS [2]: >8 |
| C[C@H]1[C@H](NC(=O)/C(=N\OC(C)(C)C(=O)O)c2csc(N)n2)C(=O)N1S(=O)(=O)O [AZT, astreonam] | >4 | >4 | >4 | >4 | >4 | >4 | >4 | >4 | >4 | >4 | >4 | >4 | >4 | >4 | >4 | >4 | >4 | >4 | >4 | >4 | MBEC-Biofilm Elimination, With 0.1% w/v compound 9 in PBS [1]: >4; MBEC-Biofilm Inhibition, Without compound 2 [2]: >4; MBEC-Biofilm Inhibition, Without compound 3 [2]: >4; MBEC-Biofilm Inhibition, Without compound 6 [2]: >4; MBEC-Biofilm Inhibition, Without compound 7 [2]: >4; MBEC-Biofilm Inhibition, Without compound 9 [2]: >4; MBEC-Biofilm Inhibition, With 0.01% compound 1 in 5% EtOH/PBS [2, 5]: >4; MBEC-Biofilm Inhibition, With 0.01% compound 2 in 5% EtOH/PBS [2]: >4; MBEC-Biofilm Inhibition, With 0.01% compound 7 in 5% EtOH/PBS [2]: >4; MBEC-Biofilm Inhibition, With 0.05% compound 3 in 5% EtOH/PBS [2]: >4; MBEC-Biofilm Inhibition, With 0.05% compound 6 in 5% EtOH/PBS [2]: >4; MBEC-Biofilm Inhibition, With 0.1% w/v compound 9 in PBS [2]: >4 |
| CCC(C)(C)c1ccc(OS(=O)(=O)Cl)cc1 [compound 7] |  |  |  |  |  |  |  |  |  |  |  |  |  |  |  |  |  |  |  |  | MIC values for several antibiotics in the presence of the compound [3]: reduced; number of the 47 antibiotics or antibiotic combinations enhanced in activity ([2]; of 47): 10; Bacterial attachment to the test surfaces in the presence of the compound ([2]; with antibiotics): completely inhibited at lower concentrations of antibiotics |
| O=C(O)c1cn(C2CC2)c2cc(N3CCNCC3)c(F)cc2c1=O [CP, ciprofloxacin] | >0.5 | 0.5 | >0.5 | >0.5 | >0.5 | >0.5 | >0.5 | >0.5 | >0.5 | >0.5 | >0.5 | >0.5 | >0.5 | >0.5 | >0.5 | >0.5 | >0.5 | >0.5 | >0.5 | >0.5 | MBEC-Biofilm Inhibition, Without compound 2 [2]: >0.5; MBEC-Biofilm Inhibition, Without compound 3 [2]: >0.5; MBEC-Biofilm Inhibition, Without compound 6 [2]: >0.5; MBEC-Biofilm Inhibition, Without compound 7 [2]: >0.5; MBEC-Biofilm Inhibition, Without compound 9 [2]: 0.5; MBEC [2]: >0.5 µg/mL; MBEC, μg/mL +Compound 1 [2]: 0.5 µg/mL; MBEC, μg/mL +Compound 2 [2]: >0.5 µg/mL; MBEC, μg/mL +Compound 7 [2]: 0.5 µg/mL; (% reduction) +Compound 1 [2, 4]: > 50%; (% reduction) +Compound 7 [2, 4]: > 50%; MBEC-Biofilm Inhibition, With 0.01% compound 1 in 5% EtOH/PBS [2, 5]: 0.5; value in parentheses after MBEC-Biofilm Inhibition with 0.01% compound 1 (% reduction as in Table 2) [2, 5]: ≥ 50; MBEC-Biofilm Inhibition, With 0.01% compound 2 in 5% EtOH/PBS [2]: 0.5; value in parentheses after MBEC-Biofilm Inhibition with 0.01% compound 2 (% reduction as in Table 2) [2]: ≥ 50; MBEC-Biofilm Inhibition, With 0.01% compound 7 in 5% EtOH/PBS [2]: >0.5; MBEC-Biofilm Inhibition, With 0.05% compound 3 in 5% EtOH/PBS [2]: >0.5; MBEC-Biofilm Inhibition, With 0.05% compound 6 in 5% EtOH/PBS [2]: >0.5 |
